Assay results taken from patent US20020077355A1, “Use of epoxyeicosatrienoic acids in the treatment of cerebrovascular conditions” (priority 2000, published 2002).
Several values for one entry are separate records, joined by “and”; a condition that tells them apart may be missing. Equal entries are not always repeated.

Columns and labels:
[1] = system: mean arterial blood pressure (MABP) in mice; test: Mean arterial blood pressure in animals with focal cerebral ischemia; assay type: in vivo; details: FIG. 3
Description: (§1) Ischemia was produced by occluding the left middle cerebral artery (MCA) with a silicon-coated 8-0 nylon monofilament under anesthesia as described (Huang, Z et al., J Cereb Blood Flow Metab, 1996, 16:981-987, Huang, Z et al., Science, 1994, 265:1883-1885, Hara, H et al., J Cereb Blood Flow Metab, 1997, 1:515-526). Arterial blood pressure, heart rate, arterial oxygen pressure, and partial pressure of carbon dioxide were monitored as described (Huang, Z et al., J Cereb Blood Flow Metab, 1996, 16:981-987, Huang, Z et al., Science, 1994, 265:1883-1885, Hara, H et al., J Cereb Blood Flow Metab, 1997, 1:515-526).
In a separate set of ventilated, halothane-anesthetized animals, regional cerebral blood flow (rCBF) was determined at the margins (“penumbra”) of ischemic infarcts using laser Doppler flowmetry (Perimed, PF-2B, Stockholm, Sweden) and recorded on a MacLab/8 data acquisition system (AD Instruments, Milford, Mass.). the left femoral artery and vein were cannulated for blood pressure measurement, blood gas determination and drug administration, a fiberoptic probe (Perimed PF-319:2, diameter=0.5 mm) was fixed to the skull, 4 mm lateral and 2 mm posterior to bregma on the ipsilateral hemisphere and away from large pial vessels. […]

[2] = system: rat cerebellar granule cell (CGC) cultures; test: H2O2 oxidative stress, apoptosis scored by Hoechst stain for nuclear condensation; assay type: cell-based; details: H2O2 225 μM for 10 min, 11,12-EET 1.2 μM present; without 11,12-EET 87.6%; p<0.01
Experimental: (§2) Cerebellar cortices of postnatal day 7 rat pups were isolated, incubated in 0.25% trypsin for 20 min and triturated with a 10-cc Falcon pipette. Cells were plated on Falcon plastic dishes ˜100,000 cells/cm^2 in BME medium containing 25 mM KCl. Cell cultures were maintained in a humidified 5% CO2 /37° C. incubator. 10 μM AraC was added from day 2-3 in vitro to suppress glial proliferation. Cells were studied at day 7-8 in vitro.
(§3) To test the effects of EET during oxidative stress, rat cerebellar granule cell (CGC) cultures were subjected to H2O2 treatment (225 μM for 10 min.). Less apoptosis was found at 24 hour when 11,12-EET (1.2 μM) was present compared to cell culture without 11,12-EET (51.7% vs. 87.6% respectively, p<0.01, scored by Hoechst stain for nuclear condensation). In addition, superoxide production (as monitored by oxidation of dihydroethidine) was decreased when 11,12-EET was present in CGC cultures during H2O2 treatment.

[3] = system: regional cerebral blood flow (rCBF) in mice; test: Regional cerebral blood flow by laser Doppler flowmetry after MCA occlusion; assay type: in vivo
Experimental: In a separate set of ventilated, halothane-anesthetized animals, regional cerebral blood flow (rCBF) was determined at the margins (“penumbra”) of ischemic infarcts using laser Doppler flowmetry (Perimed, PF-2B, Stockholm, Sweden) and recorded on a MacLab/8 data acquisition system (AD Instruments, Milford, Mass.). the left femoral artery and vein were cannulated for blood pressure measurement, blood gas determination and drug administration, a fiberoptic probe (Perimed PF-319:2, diameter=0.5 mm) was fixed to the skull, 4 mm lateral and 2 mm posterior to bregma on the ipsilateral hemisphere and away from large pial vessels. This coordinate identifies the site on the convex brain surface within the vascular territory supplied by the distal segment of the MCA (Huang, Z et al., Science, 1994, 265:1883-1885; Yang, G et al., Stroke, 1994, 25:165-70). rCBF was recorded continuously before, during and after MCA occlusion. The mean values after MCA occlusion and before administration were taken as baseline, and the data thereafter were expressed as percentages of the baseline value. The percent change in cerebrovascular resistance was calculated using the following formula: Δ%R=Δ% MABP/Δ% rCBF, where Δ% MABP is percent change in mean arterial blood pressure.
(§4) Data is expressed as means ±SE. Statistical evaluation was performed by Student's t-test to compare infarct volumes between groups. Analysis of variance with repeated measures followed by Dunnett's t-test was used to test the significance of rCBF and resistance changes between groups. p<0.05 was considered statistically significant.
Physiological variables during laser-Doppler flowimetry in anesthetized, ventilated, EET-treated and vehicle-treated mice are shown in FIGS. 2 and 3. Values are reported as mean +/− SEM. CBF denotes cerebral blood flow; MABP indicates mean arterial blood pressure.
FIG. 2 is a graph showing regional CBF changes in EET-treated and vehicle-treated mice for 80 min after EET (300 μg/kg total dose) or vehicle infusion at a constant rate of 100 μl/kg/min over 20 min. Error bars denote standard error of the mean (SEM); CBF change with baseline control was determined by one-way ANOVA followed by Fisher's protected least-squares difference test. The increase in rCBF began at 5-10 minutes and achieved statistical significance at 10-15 minutes after infusion. Maximum values achieved at 40-60 min reached 50% above baseline levels.

[4] = system: rat cerebellar granule cell (CGC) cultures; test: Dihydroethidine study to monitor intracellular superoxide production; assay type: cell-based; details: CGC cultures during H2O2 treatment, 11,12-EET 1.2 μM
Experimental: as §2
Dihydreothidine study to monitor intracellular superoxide production: 10 μl of dihydroethidine stock solution (1 mg/cc) in dimethylsulfoxide (DMSO) and 4 μl of H2O2 were added to 4cc of Eagle's Basal Medium (medium A). Each 2-cm^2 well of containing neuronal cell culture was preincubated with 11.12-EET (1.2 μM) for an hour and was replaced with 250 μL of medium A in the presence or absence of 11,12-EET (1.2 μM). […]
as §3

[5] = system: mice subjected to middle cerebral artery occlusion; test: Focal cerebral ischemia by middle cerebral artery occlusion, infarct volume; assay type: in vivo; details: for Infarct Volume, individual animal / Infarct Volume, Mean: mice, MCA occlusion; for Infarct Volume, individual animal: 24 hours
Description: Young adult male mice (C57B1/J6, Jackson Laboratories) weighing 20-25 g, were given free access to food and water prior to experimentation.
as §1
11,12 EET (Sigma Chemical Co., St Louis, Mo.) or vehicle was administered by an infusion pump (Harvard Apparatus, South Natick, Mass.) with a tethering device (Instech, Plymouth Meeting, Pa.) into the femoral vein at the rate of 0.2 ml/hour for 2 hours beginning after the onset of ischemia to deliver a dose of 30, 100, and/or 300 μg/kg/hour. Control animals received the equivalent amount of vehicle alone. During infusion, the anesthesia was discontinued. […] After infusion, the animals were re-anesthetized with halothane and the venous catheter was removed. The filaments were withdrawn after 2 hours and after 24 hours, and mice were sacrificed. Brains were divided into five coronal 2-mm sections using a mouse brain matrix (RBM-200C, Activated Systems, Ann Arbor, Mich., USA). Infarction volume was quantitated with an image analysis system (M4, St. Catharines, Ontario, Canada) on 2% 2,3,5-triphenyltetrazolium chloride (Sigma Chemical Co., St Louis, Mo.) stained 2-mm slices.
as §4

SMILES: CCCCC/C=C\CC1OC1C/C=C\C/C=C\CCCC(=O)O (stereo not drawn) [EET, 11,12-epoxyeicosatrienoic acid]
- Change in MABP, EET-treated vs. vehicle-treated animals [1]: No significant changes
- Apoptosis at 24 hour [2]: 51.7%
- Time at which the increase in rCBF began ([3]; 300 μg/kg i.v.): 5 to 10 min
- Effect on rCBF in parietal cortex ([3]; 300 μg/kg i.v. total dose infused over 20 min, vehicle did not increase rCBF): increased rCBF
- Time at which the rCBF increase achieved statistical significance ([3]; 300 μg/kg i.v., after infusion): 10 to 15 min
- Maximum rCBF above baseline levels ([3]; 300 μg/kg i.v., at 40-60 min): 50%
- Superoxide production (oxidation of dihydroethidine) [4]: decreased
- Reduction of infarct volume in comparison to vehicle-treated animals ([5]; 300 μg/kg group, n=7, p<0.05): at least 41%
- Infarct volume, of hemispheric volume ([5]; 300 μg/kg group, n=7, vehicle 34±3, means ±SE): 20±3
- Infarct Volume, individual animal ([5]; EET 30 μg/kg i.v. infusion): 32.4 mm^3 and 43.0 mm^3 and 41.9 mm^3 and 27.7 mm^3 and 37.4 mm^3 and 23.7 mm^3
- Infarct Volume, Mean ([5]; EET 30 μg/kg, n=6): 34.3 mm^3
- Infarct Volume, individual animal ([5]; EET 100 μg/kg i.v. infusion): 34.1 mm^3 and 37.6 mm^3 and 22.4 mm^3 and 16.3 mm^3 and 24.5 mm^3 and 38.6 mm^3 and 11.8 mm^3
- Infarct Volume, Mean ([5]; EET 100 μg/kg, n=7): 26.5 mm^3
- Infarct Volume, individual animal ([5]; EET 300 μg/kg i.v. infusion): 32.5 mm^3 and 13.4 mm^3 and 13.1 mm^3 and 28.3 mm^3 and 11.8 mm^3 and 25.6 mm^3 and 13.6 mm^3
- Infarct Volume, Mean ([5]; EET 300 μg/kg, n=7): 19.7 mm^3
